Measurements: patent US10822299B2, “Compounds and methods for hematopoietic regeneration” (The Regents of the University of California, priority 2016, dated 2020)

Experiments:
[1] = test system: Rac1; assay: Rac1 activation assay (G-LISA); format: cell-based; conditions: cells incubated 2 minutes at 1 and 10 μg/mL
Description: Cell cultures were incubated with each tested compound for 2 minutes at concentrations of 1 and 10 μg/mL, after which the cells were tested for Rac1 activation using a G-LISA activation assay. The cells were lysed and the lysates introduced into wells containing Rac-GTP-binding protein, then sequentially incubated with anti-Rac1 antibody and a horseradish peroxidase-linked secondary antibody. The amount of horseradish peroxidase was then quantitated to evaluate the Rac1 activation potency of each compound studied.

[2] = biological target: T1, PTPRS catalytic domains (D1D2) (Homo sapiens, UniProt Q13332); assay: In vitro phosphatase assay (modified Malachite Green Assay); format: biochemical; conditions: for IC50: 50 nM PTPRS, 100 uM Tyr Phosphopeptide, 15 min preincubation
T1 construct: The two interacellular catalytic domains (D1D2) of PTPRS were cloned into a pET28a vector; made in house; host or cells: E. coli BL21
T1 sequence (Q13332 1304-1948 limits assumed): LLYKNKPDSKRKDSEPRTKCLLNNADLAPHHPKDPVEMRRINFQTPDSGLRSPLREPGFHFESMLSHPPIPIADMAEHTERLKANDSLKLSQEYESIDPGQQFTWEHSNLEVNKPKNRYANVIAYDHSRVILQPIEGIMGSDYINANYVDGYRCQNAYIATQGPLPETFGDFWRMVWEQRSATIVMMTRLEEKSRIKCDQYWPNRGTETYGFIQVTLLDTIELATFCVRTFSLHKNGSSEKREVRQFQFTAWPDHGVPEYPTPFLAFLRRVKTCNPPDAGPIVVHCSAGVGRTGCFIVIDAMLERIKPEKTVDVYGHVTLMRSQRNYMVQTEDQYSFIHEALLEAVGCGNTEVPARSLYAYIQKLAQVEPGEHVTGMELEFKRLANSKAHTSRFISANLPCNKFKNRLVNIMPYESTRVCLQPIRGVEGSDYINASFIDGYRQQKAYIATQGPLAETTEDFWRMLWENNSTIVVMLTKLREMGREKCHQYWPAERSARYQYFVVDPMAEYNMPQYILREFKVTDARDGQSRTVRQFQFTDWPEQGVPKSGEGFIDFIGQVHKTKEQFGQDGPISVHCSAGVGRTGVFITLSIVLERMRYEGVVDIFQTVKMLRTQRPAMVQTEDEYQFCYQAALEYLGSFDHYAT
Description: The two interacellular catalytic domains (D1D2) of PTPRS were cloned into a pET28a vector and overexpressed in E. coli BL21 and purified as described in Jeon T J, et al. Structure of the Catalytic Domain of Protein Tyrosine Phosphatase Sigma in the Sulfenic Acid Form. Molecules and Cells. 2013; 36(1):55-61. doi:10.1007/s10059-013-0033-x. Enzymatic activity of PTPRS was assayed using a modified version of the Malachite Green Assay (described in Lorenz U. Protein Tyrosine Phosphatase Assays. Current protocols in immunology/edited by John E Coligan. [et al]. 2011; CHAPTER:Unit-11.7. doi:10.1002/0471142735.im1107s93) and the Tyrosine Phosphatase Assay Kit (Promega Coorperation). Unless stated otherwise, standard assays were carried out using 50 nM PTPRS protein in 1× Buffer (10 mM Tris, 5 mM MgCl2, 10 mM NaCl, 0.02% Tween) and Tyr Phosphopeptide as substrate (100 uM for FIG. 1 and 50-1200 uM in FIG. 2). Catalytic domains D1D2 were preincubated with the test compound or control for 15 min in the wells of a 96 well plate before the addition of 100 uM Tyr Phosphopeptide (DADA(pY)LIPQQG).
For IC50 determination, rates normalized relative to uninhibited controls (DMSO) were plotted against compound concentration and fitted using a four-parameter nonlinear regression curve fit ((y=[(A−D) (1+{xC−1}B)−1]+D), (Prism 6.0, Graphpad Software). For mechanism studies and determination of the enyzme's Km and Vmax, data were analyzed using a nonlinear regression fit according to classical Mechaelis-Menten kinetics model Y=Vmax*X/(Km+X) (Prism 6.0, Graphpad Software).

[3] = test system: Rac1; assay: Rac1 signaling in HSCs (BM KSL cells expressing Rac1 GTP, FIG. 1); format: cell-based
Excerpt: (§1) A) CFU-GEMMs produced by TSF media vs. TSF+GJ001 (p=0.001). B) Percentage of BM KSL cells expressing Rac1 GTP (p=0.008). C) Survival of mice irradiated with 750 cGy followed by treatment with DJ001 or vehicle (p=0.0007). D) % BM KSL cells (blue) and % ckit^+sca-1^−lin^− progenitors (gray) at day+21 in irradiated mice.

[4] = test system: irradiated mice; assay: Survival and HSC regeneration of irradiated mice; format: in vivo; conditions: for Survival of irradiated mice: irradiated mice (DJ001: 750 cGy, lethal dose)
Excerpt: as §1

[5] = test system: hematopoietic colony formation; assay: Hematopoietic colony formation; format: cell-based

Row | Structure (SMILES) | Rac1 Activation [1] | IC50 [2] [nM] | also measured
1 | CN(C)S(=O)(=O)c1cccc(N/C=C\C(=O)c2ccccc2)c1 [DJ016] | no | – | –
2 | CC(C)(C)[Si](C)(C)Oc1cccc(N/C=C\C(=O)c2ccccc2)c1 [DJ014] | yes | – | –
3 | CC(=O)c1cccc(N/C=C\C(=O)c2ccccc2)c1 [DJ006] | no | 3030 | –
4 | Cc1cccc(N/C=C\C(=O)c2ccccc2)c1 [DJ004] | yes | – | –
5 | O=C(/C=C\NCc1ccco1)c1ccccc1 [DJ018] | no | – | –
6 | O=C(/C=C\Nc1cccc(O)c1)c1ccccc1 [DJ015] | yes | 1390 | –
7 | CC(C)(C)N/C=C\C(=O)c1ccccc1 [DJ019] | no | – | –
8 | O=C(/C=C\Nc1cc(F)cc(F)c1)c1ccccc1 [DJ009] | yes | 1370 | –
9 | CCCCN/C=C\C(=O)c1ccccc1 [DJ017] | no | – | –
10 | Cc1cc(C)cc(N/C=C\C(=O)c2ccccc2)c1 [DJ011] | yes | – | –
11 | O=C(/C=C\Nc1ccccc1)c1ccccc1 [DJ013] | yes | – | –
12 | COc1cc(N/C=C\C(=O)c2ccccc2)cc(OC)c1 [DJ012] | yes | – | –
13 | O=C(/C=C\Nc1cc(C(F)(F)F)cc(C(F)(F)F)c1)c1ccccc1 [DJ030] | – | 1830 | –
14 | O=C(c1ccccc1)c1ccccc1Nc1cccc([N+](=O)[O-])c1 [DJ027] | – | 910 | –
15 | Cc1cccc(C(=O)/C=C\Nc2cccc(C(F)(F)F)c2)c1 [DJ033] | – | 950 | –
16 | CN(C)c1cccc(N/C=C\C(=O)c2ccccc2)c1 [DJ008] | no | – | –
17 | O=C(/C=C\Nc1cccc([N+](=O)[O-])c1)c1ccccc1 [DJ001] | yes | 1430 | Mechanism of inhibition (substrate titration of PTPσ, Vmax and Km) ([2]; substrate titration, Michaelis-Menten fit): classical noncompetitive inhibitor; Rac1 signaling in HSCs [3]: activates Rac1 signaling in HSCs; HSC regeneration in irradiated mice ([4]; irradiated mice): accelerates HSC regeneration in irradiated mice; Survival of irradiated mice [4]: dramatically increases mice survival following lethal dose irradiation
18 | COc1cccc(N/C=C\C(=O)c2ccccc2)c1 [DJ005] | no | – | –
19 | O=C(/C=C\Nc1cccc(C(F)(F)F)c1)c1ccccc1 [DJ003] | yes | 1060 | Survival of irradiated mice [4]: improves survival of irradiated mice; Hematopoietic colony formation [5]: increases hematopoietic colony formation
20 | O=C(/C=C\Nc1cccc(-c2ccccc2)c1)c1ccccc1 [DJ007] | no | – | –
21 | O=C(/C=C\Nc1cccc(F)c1)c1ccccc1 [DJ002] | no | – | –
